Source: PubChem BioAssay AID1645865 (Buhrlage Lab, Dana-Farber Cancer Institute and Novartis …, 2021)
The source made the active and inactive calls.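 Rule for the calls: active = maximal inhibition of the USP30 enzyme reaching 30% or more across the dose series; inactive = the rest.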

These compounds were tested against Ubiquitin carboxyl-terminal hydrolase 30 (Homo sapiens) (UniProt Q70CQ3) (assay: inhibitors of ubiquitin-specific protease 30 deubiquitylating enzyme, concentration dependence, in vitro biochemical, validation of primary hits (AID 1645865)). Conditions: purified USP30, Ub-rhodamine cleavage, fluorescence, 2 h.
Ubiquitin carboxyl-terminal hydrolase 30 (Homo sapiens), sequence (Q70CQ3 whole entry, looked up): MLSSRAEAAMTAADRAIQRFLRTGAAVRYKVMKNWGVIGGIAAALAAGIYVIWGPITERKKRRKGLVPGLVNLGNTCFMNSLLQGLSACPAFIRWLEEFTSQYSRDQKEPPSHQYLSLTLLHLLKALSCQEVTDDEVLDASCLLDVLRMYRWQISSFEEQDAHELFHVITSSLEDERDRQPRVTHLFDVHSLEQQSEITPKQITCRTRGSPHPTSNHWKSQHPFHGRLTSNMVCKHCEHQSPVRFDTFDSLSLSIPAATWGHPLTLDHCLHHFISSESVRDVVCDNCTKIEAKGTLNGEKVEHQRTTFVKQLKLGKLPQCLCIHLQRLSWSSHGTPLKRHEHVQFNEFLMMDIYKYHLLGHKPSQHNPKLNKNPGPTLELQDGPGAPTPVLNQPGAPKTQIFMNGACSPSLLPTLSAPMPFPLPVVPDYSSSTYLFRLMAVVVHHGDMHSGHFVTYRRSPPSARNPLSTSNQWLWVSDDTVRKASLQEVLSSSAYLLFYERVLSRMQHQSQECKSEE

| SMILES | IC50 |
| --- | --- |
| CC1CCc2c(sc3nc(CC#N)[nH]c(=O)c23)C1 (stereo not given) | > 50 µM (inactive) |
| CCCCN1CC(C(=O)Nc2ccc(C(=O)Nc3ccc(F)c(Cl)c3)cc2)CC1=O (stereo not given) | 47.5 µM |
| O=C(COC(=O)c1n[nH]c2ccccc12)Nc1ccc(N2CCCCC2)cc1 | 34.9 µM |
| CN1CCN(c2ncnc3c2oc2ccc(Cl)cc23)CC1 | > 50 µM (inactive) |
| CCCC(=O)Nc1ccc(SCc2nnc(-c3ccccc3)o2)cc1 | > 50 µM (inactive) |
| Cn1c(COc2ccccc2)nnc1SCC(=O)Nc1ccc(N2CCOCC2)cc1 | 20 µM |
| COc1ccc(Nc2nc(C(=O)NCc3ccccc3)cc3occc23)cc1 | > 50 µM (inactive) |
| Cc1ccc(Nc2nc(Nc3cccc(Cl)c3)nc3nccnc23)cc1 | > 50 µM (inactive) |
| Cc1ccc2c(=O)c3c([nH]c2c1C)CCN(CC(=O)NCc1ccc2c(c1)OCO2)C3 | > 50 µM (inactive) |
| CC(=O)N1CCc2cc(S(=O)(=O)NCc3ccc(C)cc3)ccc21 | > 50 µM (inactive) |
| CC1=C(c2ccc(F)cc2)S(=O)(=O)NC1=NCC(=O)Nc1ccc(F)cc1F | 23.4 µM |
| O=C(Cc1ccccc1F)N1CCC2(CC1)CC1(CO2)Nc2ccccc2-n2cccc21 (stereo not given) | > 50 µM (inactive) |
| COc1cc(Cl)ccc1Nc1ncc(C(=O)Nc2cc(OC)c(OC)c(OC)c2)c2ccccc12 | < 0.05 µM |
| COc1ccc(NC(=O)c2nc3n(n2)-c2ccccc2S(=O)(=O)N3)cn1 | > 50 µM (inactive) |
| COc1ccc2ncc3c(-c4ccc(C)cc4)nn(-c4ccc(F)cc4)c3c2c1 | 1.82 µM |
| CC(C)OC(=O)c1cc2c(ccn2C)n1CC(=O)N1CCN(C(=O)c2ccco2)CC1 | > 50 µM (inactive) |
| CC(C)(C)c1cc(C[C@@H]2C[C@H](NC(=O)N3CCOCC3)C2(C)C)no1 | 22.2 µM |
| CNC(=O)c1cc2nc(N(C)C)n(-c3ccc(F)cc3)c2s1 | > 50 µM (inactive) |
| Cc1ccc(CN2CCCn3nc(C(=O)NCc4ccccc4C)cc3C2=O)cc1 | 31.5 µM |
| CC(C)(C)C(=O)NC(c1ccccc1)c1nnc(N2CCOCC2)o1 (stereo not given) | > 50 µM (inactive) |
| COc1cc(COc2ccc3c(C)c(CC(=O)N4CC[C@@]5(O)CCCC[C@H]5C4)c(=O)oc3c2C)cc(OC)c1OC | 34.8 µM |
| COc1ccc(NC(=O)CN2CCN(c3ccc(C(C)=O)cc3)CC2)cc1S(=O)(=O)N1CCCCC1 | 36.4 µM |
| O=C(CCc1c[nH]c2ccccc12)Nc1ccc(N2CCOCC2)cc1 | 25.1 µM |
| COc1ccc(-c2nc(-c3nnn(Cc4ccc(F)cc4)c3C)no2)c(OC)c1 | 8.97 µM |
| O=C(Cn1nnc(-c2ccc(F)cc2)n1)NCCc1ccccc1 | > 50 µM (inactive) |

| SMILES | IC50 |
| --- | --- |
| COc1ccc(-c2cc(C(C)=O)c(C)n2CCC(=O)Nc2ccc(OC)cc2OC)cc1 | 32.2 µM |
| O=C(Cn1cnc2ccccc21)Nc1ccc2c(c1)CCC2 | 42.6 µM |
| Cc1nc(N2CCCC2)ncc1-c1cc(=O)[nH]c(N2CCc3ccccc3C2)n1 | 24.4 µM |
| c1cnc(-c2n[nH]c(C3CCN(C4CCNC4)CC3)n2)cn1 (stereo not given) | > 50 µM (inactive) |
| CCn1cnc2ccc(C(=O)NC3CC3)cc2c1=O | > 50 µM (inactive) |
| CC(C)C1Cc2c(sc3nc(SCC(=O)Nc4cccc5ccccc45)nc(N)c23)CO1 (stereo not given) | > 50 µM (inactive) |
| CCOc1ccc(CCNC(=O)c2ccc3c(c2)N(CC)C(=O)c2ccccc2S3)cc1OCC | > 50 µM (inactive) |
| O=S(=O)(c1cccc(F)c1)N1CCN(c2nnnn2-c2ccccc2)CC1 | 31.4 µM |
| O=C(Nc1ccccc1)c1cn2c3c(cccc3c1=O)CC2 | > 50 µM (inactive) |
| COc1ccc(CCN2COc3c(cc(Cl)c4cccnc34)C2)cc1OC | 13.6 µM |
| Nc1nc(-c2ccc[nH]2)cs1 | > 50 µM (inactive) |
| CCOC(=O)[C@@H]1[C@@H](c2ccccc2)CN2CCN(C(=O)c3cnccn3)C[C@H]12 | > 50 µM (inactive) |
| Fc1cccc(Cn2cc(-c3noc(-c4cccnc4)n3)nn2)c1 | 26.4 µM |
| Cc1ccc(Cn2nnc(-c3ccccc3Cl)n2)cc1 | > 50 µM (inactive) |
| CCN1C[C@@H]2C[C@]2(c2ccccc2OC)C(=O)c2ncccc21 | > 50 µM (inactive) |
| COc1ccc2nc(-c3ccc(NC(=O)c4cccc(OC)c4OC)cc3)cn2n1 | 1.89 µM |
| COc1ccc(N2CCN(Cc3nnnn3Cc3ccc4c(c3)OCO4)CC2)cc1 | > 50 µM (inactive) |
| Cc1ccc(NC(=O)CCC(=O)Nc2ccc3nc(N4CCCCC4)cc(C)c3c2)c(Br)c1 | 36.4 µM |
| COc1ccc(C2CC(c3ccccc3)N(C(=O)C3CC3)c3ncnn32)cc1 (stereo not given) | > 50 µM (inactive) |
| O=C(Nc1ncc2c(n1)-c1ccccc1CC2)C1CC1 | 17.5 µM |
| COc1cccc(C(=O)NCC(=O)Nc2nc3ccccc3[nH]2)c1 | 34.3 µM |
| O=C(NC(Cc1ccccc1)c1nc2ccccc2[nH]1)c1ccccn1 (stereo not given) | > 50 µM (inactive) |
| Cc1ccc(Nc2nc(C(=O)NCc3ccc4c(c3)OCO4)cc3occc23)cc1Cl | > 50 µM (inactive) |
| O=C(COc1ccc(Cl)cc1)NCc1nnc(SCC(=O)NCc2ccc3c(c2)OCO3)o1 | 25.8 µM |
| COc1cccc(NC(=O)Nc2nccn(-c3ccc(F)cc3)c2=O)c1 | 21.2 µM |

| SMILES | IC50 |
| --- | --- |
| Cc1ccc(CNC(=O)CCCn2c(=O)c3sccc3n(CC(=O)Nc3cc(Cl)ccc3C)c2=O)cc1 | 2.13 µM |
| Cc1sc(NC(=O)CN2CCc3ccccc3C2)nc1-c1ccc2c(c1)CCN2C(=O)C1CCCCC1 | > 50 µM (inactive) |
| Cc1cccc(N2C(=O)/C(=C\c3ccc4c(c3)OCCO4)c3ccccc3C2=O)c1 | > 50 µM (inactive) |
| CC(C)=CCC/C(C)=C/C[C@]1(O)C(=O)c2cc(O)cc(O)c2C(=O)[C@@]1(Cl)CC=C(C)C | > 50 µM (inactive) |
| COc1ccc(NC(=O)c2sc(N3CCOCC3)nc2-c2ccccc2)c(OC)c1 | 18.9 µM |
| Cc1ccc2nc(CNc3ccc(F)cc3C)cc(=O)n2c1 | > 50 µM (inactive) |
| CC(C)NS(=O)(=O)c1cccc2c(NC(=O)C(Cc3ccccc3)NC(=O)c3ccccc3)cccc12 (stereo not given) | < 0.05 µM |
| COc1ccccc1NC(=O)Cn1cc(C(=O)c2ccc(C)cc2)c(=O)c2ccccc21 | 22.9 µM |
| O=C(COc1ccccc1-c1nnc(-c2ccccc2)o1)Nc1ccc(F)cc1F | 2.16 µM |
| O=C(Nc1ccc(Oc2cccc3cccnc23)cc1)c1cccs1 | > 50 µM (inactive) |
| COc1ccccc1NC(=O)c1cc(-c2ccccn2)nc2ccccc12 | 16.5 µM |
| CCc1ccc2[nH]c(=O)c(CN(CCc3ccc(OC)c(OC)c3)C(=O)Nc3ccccc3)cc2c1 | > 50 µM (inactive) |
| COc1cccc(NC(=O)C2Cn3ccnc3C3(CCN(C(C)=O)CC3)O2)c1 (stereo not given) | > 50 µM (inactive) |
| Cc1cccc(-c2noc(CCn3c(=O)[nH]c4ccccc4c3=O)n2)c1 | 29.8 µM |
| O=C(Nc1cccc(F)c1)C1CCCN(S(=O)(=O)N2CCCCCC2)C1 (stereo not given) | 36.4 µM |
| CCCc1nc2sc3c(NCc4ccco4)ncnc3c2c2c1CCC2 | > 50 µM (inactive) |
| N#Cc1ccc(NC(=O)COC(=O)c2ccc3ccccc3n2)cc1 | > 50 µM (inactive) |
| Cc1ccc(C(=O)NCc2ccc(C(=O)Nc3cccc(C)c3)o2)cc1 | 26.9 µM |
| O=c1c(Nc2cccc(F)c2)nc2ccncc2n1Cc1ccccc1 | 26.4 µM |
| O=C(CCc1ccccc1)N(CC1CCCO1)c1nc2ccccc2s1 (stereo not given) | 37.3 µM |
| COc1ccc(C(=O)CCN2CCOCC2)cc1[N+](=O)[O-] | > 50 µM (inactive) |
| CC(C)(C)C(=O)C1C2C(=O)N(c3ccc4c(c3)OCO4)C(=O)C2C2c3ccccc3C=CN12 (stereo not given) | > 50 µM (inactive) |
| COc1ccc(S(=O)(=O)N(C)Cc2cccs2)cc1OC | > 50 µM (inactive) |
| CCc1ccc(NC(=O)CN=C2NS(=O)(=O)C(c3ccc(CC)cc3)=C2C)cc1 | 4.67 µM |
| COc1ccc(Cl)cc1NC(=O)c1cc(-c2ccccn2)n[nH]1 | 0.164 µM |

| SMILES | IC50 |
| --- | --- |
| Cc1cc(=O)n(CC(=O)Nc2ccccc2C)c(Nc2ccc(F)cc2)n1 | 11.2 µM |
| COc1cc(NC(=O)c2ccc3c(c2)OCO3)ccc1-c1cc2ccccc2oc1=O | 0.363 µM |
| O=C(CSc1ccc2nnc(-c3ccccc3)n2n1)N1CCCc2ccccc21 | 10.7 µM |
| Cc1ccc(-c2nc(-c3ccccc3)c(S(=O)(=O)CC(=O)Nc3ccc(C)c(C)c3)[nH]2)cc1 | > 50 µM (inactive) |
| COc1ccc(-c2nc3n(n2)C(c2cccc(O)c2)C2=C(CCCC2=O)N3)cc1 (stereo not given) | 38.2 µM |
| COc1cccc(S(=O)(=O)N2CCn3nc(C(C)(C)C)cc3C2)c1 | 24.6 µM |
| O=C(Nc1ccc(-c2nnc3n2CCCCC3)cc1)c1ccc2c(c1)OCO2 | > 50 µM (inactive) |
| COc1ccc(OC)c(-c2cc(C(=O)Nc3c(C)nn(Cc4ccccc4)c3C)no2)c1 | > 50 µM (inactive) |
| Cc1ccc(C(=O)Nc2ccc3nccnc3c2)cc1 | 34.3 µM |
| O=[N+]([O-])c1ccc(NCc2ccc(-c3cccs3)s2)nc1 | 39.1 µM |
| CC(=O)Nc1cccc(NC(=O)COc2cccc3ccc(N4CCCC4)nc23)c1 | > 50 µM (inactive) |
| CCc1cc(C(=O)c2ccc(OC)cc2)c(NC(=O)CN2CCCCC2)s1 | 33.5 µM |
| COc1ccc(OC)c(NC(=O)CNC(=O)c2cc3c(OC)cccc3[nH]2)c1 | > 50 µM (inactive) |
| O=C(Nc1ccc2c(c1)OCCO2)C1CCN(C(=O)c2ccccc2)CC1 | > 50 µM (inactive) |
| COc1ccc(C(=O)Nc2sc3c(c2C(=O)NCc2cccnc2)CCCC3)cc1 | 4.43 µM |
| COc1ccccc1C(=O)NCC(c1ccc2c(c1)CCCN2C)N1CCCC1 (stereo not given) | > 50 µM (inactive) |
| CCOC(=O)c1ccc(NC(=O)c2cnc(N3CCOCC3)nc2)cc1 | > 50 µM (inactive) |
| Cc1cc(C(=O)NC2(O)C(=O)c3ccccc3C2=O)n(C)n1 | 20.5 µM |
| CN(C)C1CCN(C(=O)c2cc(-c3ccn(-c4ccccc4)n3)n3ccccc23)CC1 | > 50 µM (inactive) |
| CCN(CC(=O)Nc1cc(C)on1)c1cccc2ccccc12 | > 50 µM (inactive) |
| O=C(COc1ccc(Cl)cc1Cl)Nc1ccccc1-c1nc2ccccc2[nH]1 | 1.61 µM |
| COc1cc(-c2nc(C(N)=O)c3[nH]c(=O)n(-c4ccc(C)cc4)c3n2)cc(OC)c1OC | 2.13 µM |
| COC(=O)c1cc2c(ccn2C)n1CC(=O)NC1CCCC1 | > 50 µM (inactive) |
| O=C(COC(=O)Cn1cnc2ccccc21)Nc1ccc2c(c1)OCCO2 | > 50 µM (inactive) |
| O=C(CNC(=O)OCc1ccccc1)Nc1ccc(Br)cc1C(=O)c1ccccc1Cl | 5.77 µM |
